Experimental data from US5616606A, “Oligopeptide antiretroviral agents” (priority 1995, dated 1997).
Like-named read-outs stand apart in the source and are kept apart here.

Key:
HIV-1 = details: for INFECTED RESPONSE % of Control: Table VIII
calf thymus DNA = test: ethidium displacement assay, drug-DNA binding constant, calf thymus DNA; details: relative to ethidium 10^7 M^-1, average of repeat measurements
2.2.15 cells = test: toxicity analysis, neutral red dye uptake in 2.2.15 cells; details: triplicate, ± standard deviation
[1] = test system: T4 lymphocytes (CEM cell line); test: NCI anti-HIV screen, toxicity control in uninfected cells; format: cell-based; details: Table VIII
poly(dA-dT) = test: ethidium displacement assay, poly(dA-dT); details: relative to ethidium 9.5 × 10^6 M^-1, average of repeat measurements
[2] = HIV-1 infected CEM cells, 6 days, XTT, Tables VI-X

## Cl.Cl.Cn1cc(NC(=O)c2cc(NC(=O)/C=C\C(=O)Nc3cc(C(=O)Nc4cc(C(=O)NCCC(=N)N)n(C)c4)n(C)c3)cn2C)cc1C(=O)NCCC(=N)N [Compound 22b, N,N'-Di(1-methyl-2-carboxamido(3-(proprionamidine-4-pyrrole]-4-pyrrolyl)maleamidedihydrochloride]
HIV-1; [2]
  EC50: 4040 nM
HIV-1; Table XI
  EC50: 350 nM

## Cl.Cl.Cn1cc(NC(=O)c2cc(NC(=O)CCC(=O)Nc3cc(C(=O)Nc4cc(C(=O)NCCC(=N)N)n(C)c4)n(C)c3)cn2C)cc1C(=O)NCCC(=N)N [Compound 5]
Calf thymus DNA
  DNA Binding Constant: 7.2e+07 M⁻¹
HIV-1; inactive, moderate or active
  Anti-HIV-1 Activity (National Cancer Institute Designation): Moderate
2.2.15 cells; 10 μg/ml
  NEUTRAL RED DYE UPTAKE: 99 ± 2 % OF CONTROL
2.2.15 cells; 30 μg/ml
  NEUTRAL RED DYE UPTAKE: 100 ± 1 % OF CONTROL

## Cl.Cl.Cn1cc(NC(=O)c2cc(NC(=O)/C=C/C(=O)Nc3cc(C(=O)Nc4cc(C(=O)NCCC(=N)N)n(C)c4)n(C)c3)cn2C)cc1C(=O)NCCC(=N)N [Compound 21b, N,N'-di[1-methyl-2-[1-methyl-2-carboxamido(3-propionamidine)-4-pyrrole]-4-4pyrrolyl] fumaride dihydrochloride]
[1]; dose 1.05 × 10^-8 Molar
  […] % of Control: 83.05 % of Control
[1]; dose 1.09 × 10^-7 Molar
  […] % of Control: 90.26 % of Control
[1]; dose 3.31 × 10^-6 Molar
  […] % of Control: 151.83 % of Control
[1]; dose 3.31 × 10^-7 Molar
  […] % of Control: 88.21 % of Control
[1]; dose 3.32 × 10^-8 Molar
  […] % of Control: 67.56 % of Control
[1]; dose […] 10^-6 Molar
  […] % of Control: 83.87 % of Control
poly(dA-dT)
  Kapp: 4.9e+07 M⁻¹
HIV-1; [2]
  EC50: 1670 nM
HIV-1; Table XI
  EC50: 1370 nM
HIV-1; dose 1.05 × 10^-8 Molar
  INFECTED RESPONSE % of Control: 18.00 % of Control
HIV-1; dose 1.09 × 10^-7 Molar
  INFECTED RESPONSE % of Control: 26.15 % of Control
HIV-1; dose 3.31 × 10^-6 Molar
  INFECTED RESPONSE % of Control: 96.78 % of Control
HIV-1; dose 3.31 × 10^-7 Molar
  INFECTED RESPONSE % of Control: 20.00 % of Control
HIV-1; dose 3.32 × 10^-8 Molar
  INFECTED RESPONSE % of Control: 22.96 % of Control
HIV-1; dose […] 10^-6 Molar
  INFECTED RESPONSE % of Control: 38.90 % of Control
